{
  "source": "patent US11647750B2",
  "about": "“Active compound combinations having insecticidal/acaricidal properties” (Bayer Aktiengesellschaft, priority 2017, dated 2023)",
  "format_in_all_cases": "in vivo",
  "key": {"[1]": {"test_system": "Tetranychus urticae", "experiment": "Tetranychus urticae spray test, OP-resistant (French bean leaf disks)", "protocol": "(§1) • The expected efficacy of a given combination of two compounds is calculated as follows (see Colby, S. R., “Calculating Synergistic and antagonistic Responses of Herbicide Combinations”, Weeds 15, pp. 20-22, 1967): • If • X is the efficacy expressed in % mortality of the untreated control for test compound A at a concentration of m ppm respectively m g/ha, • Y is the efficacy expressed in % mortality of the untreated control for test compound B at a concentration of n ppm respectively n g/ha, • E is the efficacy expressed in % mortality of the untreated control using the mixture of A and B at m and n ppm respectively m and n g/ha, • then is\n(§2) [formula] • If the observed insecticidal efficacy of the combination is higher than the one calculated as “E”, then the combination of the two compounds is more than additive, i.e. there is a synergistic effect.\nTetranychus urticae—Spray Test OP-Resistant\n(§3) • Solvent: 78.0 parts by weight acetone 1.5 parts by weight dimethylformamide • Emulsifier: alkylarylpolyglycol ether\n(§4) To produce a suitable preparation of active compound, 1 part by weight of active compound is mixed with the stated amount of solvents and is diluted with water, containing an emulsifier concentration of 1000 ppm, to the desired concentration. To produce a suitable preparation of a spore suspension the spores are diluted with emulsifier containing water to the desired concentration. Further test concentrations are prepared by dilution with emulsifier containing water.\nFrench bean (Phaseolus vulgaris) leaf disks infected with all instars of the two spotted spidermite (Tetranychus urticae), are sprayed with a preparation of the active ingredient of the desired concentration.\nAfter the specified period of time, mortality in % is determined. 100% means all spider mites have been killed and 0% means none of the spider mites have been killed. The mortality values determined thus are recalculated using the Colby-formula (see above)."}, "[2]": {"test_system": "Myzus persicae", "experiment": "Myzus persicae spray test (Chinese cabbage leaf disks)", "settings": "mortality", "protocol": "as §1, §2\nMyzus persicae Spray Test\nas §3, §4\nChinese cabbage (Brassica pekinensis) leaf disks infected with all instars of the green peach aphid (Myzus persicae), are sprayed with a preparation of the active ingredient of the desired concentration.\nAfter the specified period of time, mortality in % is determined. 100% means all aphids have been killed; 0% means none of the aphids have been killed. The mortality values determined thus are recalculated using the Colby-formula (see above)."}, "[3]": {"test_system": "Tetranychus urticae", "experiment": "Tetranychus urticae spray test; OP-resistant (bean plants)", "settings": "mortality", "protocol": "as §1, §2\nTetranychus urticae Spray Test; OP-Resistant\nSolvent: 7 parts by weight of dimethylformamide\nEmulsifier: alkylaryl polyglycol ether\nTo produce a suitable preparation of active compound, 1 part by weight of active compound is mixed with the stated amount of solvent and is diluted with water, containing an emulsifier concentration of 1000 ppm, to the desired concentration. Further test concentrations are prepared by dilution with emulsifier containing water.\nBean plants (Phaseolus vulgaris) which are heavily infested with all stages of the two-spotted spider mite (Tetranychus urticae) are treated by being sprayed with the preparation of the active compound of the desired concentration.\nAfter the specified period of time mortality in % is determined. 100% means all the spider mites have been killed and 0% means none of the spider mites have been killed. The mortality values determined thus are recalculated using the Colby-formula (see above)."}, "[4]": {"test_system": "Meloidogyne incognita", "experiment": "Meloidogyne incognita test (gall formation on salad roots)", "settings": "nematicidal activity on the basis of gall formation", "protocol": "as §1, §2\nMeloidogyne incognita—Test\nSolvent: 125.0 parts by weight of acetone\nTo produce a suitable preparation of active compound, 1 part by weight of active compound is mixed with the stated amount of solvent, and the concentrate is diluted with water to the desired concentration. To produce a suitable preparation of a spore suspension the spores are diluted with water to the desired concentration.\nVessels are filled with sand, a solution of the active ingredient, a suspension containing eggs and larvae of the southern root-knot nematode (Meloidogyne incognita) and salad seeds. The salad seeds germinate and the seedlings grow. Galls develop in the roots.\nAfter the specified period of time nematicidal activity is determined on the basis of the percentage of gall formation. 100% means no galls were found and 0% means the number of galls found on the roots of the treated plants was equal to that in untreated control plants."}, "[5]": {"settings": "Tetranychus urticae, foliar, 144 h, read-out: Efficacy in % after 6 days"}, "[6]": {"settings": "Tetranychus urticae, foliar, 144 h, 0.5 g ai/ha, mortality, 6 days, read-out: Efficacy in % after 6 days"}, "[7]": {"settings": "Tetranychus urticae, foliar, 144 h, 0.6 g ai/ha, mortality, 6 days, read-out: Efficacy in % after 6 days"}},
  "note": "Like-named read-outs stand apart in the source and are kept apart here.",
  "data": [
    {"compound": "COCCOC(=O)C(C#N)(C(=O)c1ccccc1C(F)(F)F)c1ccc(C(C)(C)C)cc1", "note": "(racemic) [Cyflumetofen, 2-methoxyethyl (RS)-2-(4-tert-butylphenyl)-2-cyano-3-oxo-3-(α,α,α-trifluoro-o-tolyl)propionate]", "values": [
      {"measurement": "Efficacy in % after 2 days", "setting": "[1]; 0.5 g ai/ha, mortality", "value": 0, "unit": "%"},
      {"measurement": "pest or weed control at 0.5 g/ha", "setting": "[1]; [5]", "value": 0, "unit": "%"}
    ]},
    {"compound": "Cc1cc(F)c(N=C2SCC(=O)N2CC(F)(F)F)cc1[S+]([O-])CC(F)(F)F", "note": "(centres unmarked) [Cpd of formula (I)]", "values": [
      {"measurement": "Efficacy in % after 6 days", "setting": "[2]; 2 g ai/ha", "value": 0, "unit": "%"},
      {"measurement": "Efficacy in % after 6 days", "setting": "[2]; 8 g ai/ha", "value": 0, "unit": "%"},
      {"measurement": "Efficacy in % after 2 days", "setting": "[1]; 0.125 g ai/ha, mortality", "value": 0, "unit": "%"},
      {"measurement": "Efficacy in % after 2 days", "setting": "[1]; 0.5 g ai/ha, mortality", "value": 0, "unit": "%"},
      {"measurement": "pest or weed control at 0.125 g/ha", "setting": "[1]; Tetranychus urticae, foliar, 144 h, 0.125 g ai/ha, mortality, 6 days, read-out: Efficacy in % after 6 days", "value": 0, "unit": "%"},
      {"measurement": "pest or weed control at 0.3 g/ha", "setting": "[1]; Tetranychus urticae, foliar, 144 h, 0.3 g ai/ha, mortality, 6 days, read-out: Efficacy in % after 6 days", "value": 0, "unit": "%"},
      {"measurement": "pest or weed control at 0.5 g/ha", "setting": "[1]; [6]", "value": 0, "unit": "%"},
      {"measurement": "pest or weed control at 0.6 g/ha", "setting": "[1]; [7]", "value": 0, "unit": "%"},
      {"measurement": "Efficacy in % after 3 days", "setting": "[3]; 0.4 ppm", "value": 0, "unit": "%"},
      {"measurement": "Efficacy in % after 7 days", "setting": "[3]; 0.8 ppm", "value": 30, "unit": "%"},
      {"measurement": "Efficacy in % after 14 days", "setting": "[4]; 1 ppm", "value": 0, "unit": "%"},
      {"measurement": "Efficacy in % after 14 days", "setting": "[4]; 2 ppm", "value": 70, "unit": "%"}
    ]},
    {"compound": "Cc1cc(Cl)cc(C)c1C1=C(O)C2(CCC3(CC2)OCCO3)NC1=O", "note": "[Cpd of formula (IIa)]", "values": [
      {"measurement": "Efficacy in % after 6 days", "setting": "[2]; 16 g ai/ha", "value": 0, "unit": "%"},
      {"measurement": "Efficacy in % after 2 days", "setting": "[1]; 1 g ai/ha, mortality", "value": 0, "unit": "%"},
      {"measurement": "pest or weed control at 1 g/ha", "setting": "[1]; Tetranychus urticae, foliar, 144 h, 1 g ai/ha, mortality, 6 days, read-out: Efficacy in % after 6 days", "value": 0, "unit": "%"}
    ]},
    {"compound": "Cc1ccc(-c2ccc(F)cc2)c(C)c1C1=C(O)C2(CCOCC2)NC1=O", "note": "[Cpd of formula (IIb)]", "values": [
      {"measurement": "Efficacy in % after 2 days", "setting": "[1]; 0.5 g ai/ha, mortality", "value": 0, "unit": "%"},
      {"measurement": "pest or weed control at 0.5 g/ha", "setting": "[1]; [6]", "value": 0, "unit": "%"}
    ]},
    {"compound": "Cc1nn(C)c(/C(OC(=O)C(C)(C)C)=C(\\C#N)c2ccc(C(C)(C)C)cc2)c1C", "note": "[Cyenopyrafen, (E)-2-(4-tert-butylphenyl)-2-cyano-1-(1,3,4-trimethylpyrazol-5-yl)vinyl 2,2-dimethylpropionate]", "values": [
      {"measurement": "Efficacy in % after 6 days", "setting": "[2]; 0.5 g ai/ha", "value": 0, "unit": "%"},
      {"measurement": "Efficacy in % after 6 days", "setting": "[2]; 2 g ai/ha", "value": 0, "unit": "%"},
      {"measurement": "pest or weed control at 0.125 g/ha", "setting": "[1]; [5]", "value": 0, "unit": "%"}
    ]},
    {"compound": "COC(c1ccc(N(C(=O)c2c(C)nn(C)c2C)C(=O)C(C)C)cc1CC(C)C)(C(F)(F)F)C(F)(F)F", "note": "[Pyflubumide, 3′-isobutyl-N-isobutyryl-1,3,5-trimethyl-4′-[2,2,2-trifluoro-1-methoxy-1-(trifluoromethyl)ethyl]pyrazole-4-carboxanilide]", "values": [
      {"measurement": "Efficacy in % after 2 days", "setting": "[1]; 0.0125 g ai/ha, mortality", "value": 0, "unit": "%"},
      {"measurement": "pest or weed control at 0.0125 g/ha", "setting": "[1]; Tetranychus urticae, foliar, 144 h, 0.0125 g ai/ha, mortality, 6 days, read-out: Efficacy in % after 6 days", "value": 0, "unit": "%"},
      {"measurement": "pest or weed control at 0.6 g/ha", "setting": "[1]; [7]", "value": 70, "unit": "%"}
    ]},
    {"compound": "Cc1cc(C)c(C2=C(OC(=O)CC(C)(C)C)C3(CCCC3)OC2=O)c(C)c1", "note": "[Spiromesifen, 3-mesityl-2-oxo-1-oxaspiro[4.4]non-3-en-4-yl 3,3-dimethylbutyrate]", "values": [
      {"measurement": "Efficacy in % after 2 days", "setting": "[1]; 0.05 g ai/ha, mortality", "value": 0, "unit": "%"},
      {"measurement": "pest or weed control at 0.05 g/ha", "setting": "[1]; [5]", "value": 0, "unit": "%"},
      {"measurement": "pest or weed control at 0.6 g/ha", "setting": "[1]; [5]", "value": 0, "unit": "%"}
    ]},
    {"compound": "CCOC(=O)OC1=C(c2cc(C)ccc2C)C(=O)N[C@]12CC[C@@H](OC)CC2", "note": "[Spirotetramat, cis-4-(ethoxycarbonyloxy)-8-methoxy-3-(2,5-xylyl)-1-azaspiro[4.5]dec-3-en-2-one]", "values": [
      {"measurement": "Efficacy in % after 2 days", "setting": "[1]; 0.05 g ai/ha, mortality", "value": 0, "unit": "%"},
      {"measurement": "pest or weed control at 0.05 g/ha", "setting": "[1]; [5]", "value": 0, "unit": "%"},
      {"measurement": "Efficacy in % after 7 days", "setting": "[3]; 2 ppm", "value": 40, "unit": "%"},
      {"measurement": "Efficacy in % after 14 days", "setting": "[4]; 30 ppm", "value": 0, "unit": "%"},
      {"measurement": "Efficacy in % after 14 days", "setting": "[4]; 60 ppm", "value": 0, "unit": "%"}
    ]},
    {"compound": "abamectin", "values": [
      {"measurement": "Efficacy in % after 2 days", "setting": "[1]; 0.00125 g ai/ha, mortality", "value": 0, "unit": "%"},
      {"measurement": "Efficacy in % after 6 days", "setting": "[1]; 0.015 g ai/ha, mortality, 6 days", "value": 70, "unit": "%"},
      {"measurement": "Efficacy in % after 6 days", "setting": "[1]; 0.03 g ai/ha, mortality, 6 days", "value": 70, "unit": "%"},
      {"measurement": "Efficacy in % after 3 days", "setting": "[3]; 0.01 ppm", "value": 0, "unit": "%"}
    ]},
    {"compound": "emamectin benzoate [Emamectin-benzoate]", "values": [
      {"measurement": "Efficacy in % after 2 days", "setting": "[1]; 0.003125 g ai/ha, mortality", "value": 0, "unit": "%"},
      {"measurement": "Efficacy in % after 6 days", "setting": "[1]; 0.003125 g ai/ha, mortality, 6 days", "value": 0, "unit": "%"},
      {"measurement": "Efficacy in % after 2 days", "setting": "[1]; 0.0125 g ai/ha, mortality", "value": 0, "unit": "%"},
      {"measurement": "Efficacy in % after 6 days", "setting": "[1]; 0.0125 g ai/ha, mortality, 6 days", "value": 0, "unit": "%"},
      {"measurement": "Efficacy in % after 6 days", "setting": "[1]; 0.15 g ai/ha, mortality, 6 days", "value": 0, "unit": "%"}
    ]},
    {"compound": "milbemectin", "values": [
      {"measurement": "Efficacy in % after 6 days", "setting": "[1]; 0.75 g ai/ha, mortality, 6 days", "value": 0, "unit": "%"},
      {"measurement": "Efficacy in % after 6 days", "setting": "[1]; 1.5 g ai/ha, mortality, 6 days", "value": 0, "unit": "%"}
    ]},
    {"compound": "spinosad", "values": [
      {"measurement": "Efficacy in % after 2 days", "setting": "[1]; 0.03125 g ai/ha, mortality", "value": 0, "unit": "%"},
      {"measurement": "Efficacy in % after 6 days", "setting": "[1]; 0.03125 g ai/ha, mortality, 6 days", "value": 0, "unit": "%"},
      {"measurement": "Efficacy in % after 6 days", "setting": "[1]; 0.125 g ai/ha, mortality, 6 days", "value": 0, "unit": "%"}
    ]}
  ]
}
